Data from US5204341A, “1-arylsulphonyl-2-pyrrolidone derivatives, their preparation process and the new intermediates obtained, their use as medicaments and the pharmaceutical compositions containing them” (priority 1990, dated 1993).
Read-outs that look alike come from different tables or passages of the source.

Assays:
[1] = system: histamine-induced contractions of isolated ileum; test: Antagonism of histamine-induced contractions of isolated guinea-pig ileum; assay type: cell-based; details: histamine 1×10^-5 M, contact time one minute, 37° C., read-out: Antagonistic to Histam., IC50
Description: (§1) The interaction of the compounds with different receptors was evaluated on the isolated ileum of a guinea-pig according to the following method.
(§2) 2.5-3 cm segments of the guinea-pigs, ileum were washed and immediately suspended in a bath containing 10 ml of a Tyrode solution at 37° C. and aerated with a mixture of oxygen (95%) and carbon dioxide (5%). After a stabilization period of at least 30 minutes, the contractions are recorded, maintaining the preparation under constant pressure of 1 g, using a sensor connected to a polygraph. […] The following dose was only added to the bath after the preparation returned to its base line. Arecoline was used as reference product. The antagonistic action was evaluated on contractions induced by acetylcholine (1×10^-6 M), histamine (1×10^-5 M) and barium chloride (2×10^-5 M). […] The contact time before adding the agonist was one minute.
(§3) For each compound the dose-response curves are obtained with 4 to 6 different concentrations and 3 to 5 independent tests. The agonistic activity is expressed by pD2 (negative logarithm of the dose which produces 50% of the maximum effect). The antagonistic activity is expressed by IC50 (concentration inhibiting 50% of the maximum response).

[2] = target: T1, Muscarinic receptor 1 (Rattus norvegicus, UniProt P08482); test: Affinity for the muscarinic M1 receptor ([^3 H]pirenzepine binding, rat cortex); details: 0.25 nM ^3 H pirenzepine, 60 min, 25° C., pH 7.4
T1 construct: cortex removed from the brains of male rats weighing 150 to 200 g (Iffa Credo); from tissue; host or cells: rat cerebral cortex homogenate
T1 sequence (P08482 1-460): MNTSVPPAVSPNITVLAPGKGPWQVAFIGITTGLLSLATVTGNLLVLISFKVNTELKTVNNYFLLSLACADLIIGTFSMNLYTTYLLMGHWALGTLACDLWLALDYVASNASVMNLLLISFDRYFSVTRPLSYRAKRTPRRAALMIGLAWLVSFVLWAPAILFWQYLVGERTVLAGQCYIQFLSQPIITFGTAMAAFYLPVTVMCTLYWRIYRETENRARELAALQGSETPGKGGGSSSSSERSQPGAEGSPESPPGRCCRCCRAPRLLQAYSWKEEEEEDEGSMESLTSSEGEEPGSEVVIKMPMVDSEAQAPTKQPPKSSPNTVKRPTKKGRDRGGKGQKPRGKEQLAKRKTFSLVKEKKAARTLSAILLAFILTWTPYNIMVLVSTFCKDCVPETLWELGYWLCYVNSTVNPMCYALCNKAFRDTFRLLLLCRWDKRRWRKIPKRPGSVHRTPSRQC
Description: Its preparation is carried out from cortex removed from the brains of male rats weighing 150 to 200 g (Iffa Credo) ground up in a Polytron in a 10 mM Na/K pH 7.4 buffer. After incubation (0.5 ml aliquots of homogenate) for 60 minutes at 25° C. in the presence of 0.25 nM of ^3 H pirenzepine either on its own, or with the product to be tested, or with an excess of pirenzepine at 10^-5 M (in order to determine the non-specific fixed radioactivity), the incubates are cooled down and filtered.
The filtration is carried out on Whatman GF/C filters prewashed in a 0.05% polyethylene imine solution. The filters are rinsed with 3×5 ml of 10 mM Na/K pH 7.4 phosphate buffer, then measurements are carried out by liquid scintillation.
(§4) The results are expressed in IC50 (concentration necessary to inhibit 50% of the fixed specific radio-activity).

[3] = target: Muscarinic receptor 2; test: Affinity for the muscarinic M2 receptor ([^3 H]quinuclidinyl benzylate binding, rat brain); details: 0.3 nM ^3 H quinuclidinyl benzylate, 60 min, 25° C., pH 7.5
Description: The preparation is carried out from the brains of male rats weighing 150 to 200 g (Iffa Credo).
The brains are ground up (Teflon-glass) in a 0.32 M sucrose solution. The homogenate is centrifuged for 10 minutes at 1000 g (0-4° C.).
The supernatant obtained is collected and centrifuged again at 30000 g for 15 minutes (0-4° C.).
The deposit is put in suspensions in a 50 mM Tris pH 7.5 buffer and the new homogenate is centrifuged again at 30000 g for 15 minutes (0-4° C.).
After elimination of the supernatants, the deposits can be used immediately or kept for up to one month at -30° C.
For one experiment the deposits are firstly defrosted, if necessary, at ambient temperature and put in suspension using a Dounce grinder in a 50 mM Tris pH 7.5 buffer. 2 ml aliquots are incubated for 60 minutes at 25° C. in the presence of 0.3 nM of
^3 H quinuclidinyl benzylate either on its own, or with the product to be tested, or with benzatropine at 10^-5 M in order to determine the non-specific fixed radioactivity.
At the end of the incubation, the tubes of incubate are cooled down to 4° C. and the incubate is filtered rapidly on Whatman GF/C filters. The filters are rinsed with 3×5 ml of 50 mM Tris pH 7.5 buffer then measurements are carried out by liquid scintillation (Henry I Yamamura, Solomon H. Synder, Proc. Nat. Acad Sc. (1974) 71, No. 5, 1725-1729).
as §4

[4] = system: acetylcholine-induced contractions of isolated ileum; test: Antagonism of acetylcholine-induced contractions of isolated guinea-pig ileum; assay type: cell-based; details: read-out: Antagonistic to ACh, IC50
Description: as §1, §2, §3

[5] = system: barium chloride-induced contractions of isolated ileum; test: Antagonism of barium chloride-induced contractions of isolated guinea-pig ileum; assay type: cell-based; details: read-out: Antagonistic to BaCl2, IC50
Description: as §1, §2, §3

[6] = system: isolated ileum; test: Agonistic action on isolated guinea-pig ileum; assay type: cell-based; details: negative logarithm of the dose producing 50% of the maximum effect; for EC50: Cavia porcellus, read-out: Agonistic action pD2 (converted)
Description: as §1, §2, §3

[7] = system: cholinomimetic effects induced by carbachol; test: In vivo anti-cholinergic action: inhibition of cholinomimetic effects induced by carbachol in mice; design: species or system CD1 male mice; details: for ED50 / ED (1 degree C): Mus musculus, ip, 0.5 h; for ED (1 degree C): rectal temperature, read-out: Dose changing body temperature (hypothermic effect of carbachol) by 1° C.
Description: The anti-cholinergic activity of the compounds was determined by evaluating the capacity to inhibit the cholino-mimetic effects induced by carbachol. Atropine sulphate was used as reference product.
CD1 male mice weighing 25 to 30 g are used. They are divided into groups of 6 animals and treated by intraperi-toneal route at scalar doses of the products or 0.25% Methocel for the controls. 12 animals are used for each dose. 30 minutes after the administration of the compounds, 1 mg/kg of carbachol, dissolved in physiological serum, was injected into the mice by sub-cutaneous route.
Each animal was examined 30 minutes after the injection of carbachol to evaluate the presence of diarrhoea, salivation and weeping; the body temperature was also measured using a thermocouple inserted 1.5 cm inside the rectum.
For each compound, we have determined the dose which can inhibit, in 50% of the animals, the appearance of cholinomimetic symptoms induced by carbachol and […] the hypothermic effect induced by the cholinergic agent by 1° C.

[8] = Cavia porcellus, acetylcholine 1×10^-6 M, contact time one minute, 37° C.
[9] = Cavia porcellus, barium chloride 2×10^-5 M, contact time one minute, 37° C.
[10] = i.p., 30 min before carbachol 1 mg/kg s.c., read-out: Dose inhibiting diarrhoea in 50% of the animals
[11] = i.p., 30 min before carbachol 1 mg/kg s.c., read-out: Dose inhibiting salivation in 50% of the animals
[12] = i.p., 30 min before carbachol 1 mg/kg s.c., read-out: Dose inhibiting weeping in 50% of the animals
[13] = i.p., 30 min before carbachol 1 mg/kg s.c.

| Compound | IC50 ([1]; Cavia porcellus) | IC50 [2] | IC50 [3] | IC50 [4, 8] | IC50 [5, 9] | EC50 [6] | further results |
| --- | --- | --- | --- | --- | --- | --- | --- |
| CCN(CC)c1ccc(S(=O)(=O)N2CC(O)CC2=O)cc1 (stereo not shown) [Example 1, 1-[[4-(diethylamino)-phenyl]sulphonyl]-4-hydroxy-2-pyrrolidinone] | > 10000 nM | 370 nM | > 5000 nM | 860 nM | > 10000 nM | > 100000 nM |  |
| COC(=O)C1=CCCN(C)C1 [Arecoline, reference compound] |  |  |  |  |  | 209 nM |  |
| 1-[[4-(dimethylamino)-phenyl]-sulphonyl]-4-(2,2-dimethyl-1-oxo-propoxy)-2-pyrrolidinone [Example 2] |  | 720 nM | > 5000 nM |  |  |  | IC50 [1]: > 10000 nM; IC50 ([4]; acetylcholine 1×10^-6 M, contact time one minute, 37° C.): 5500 nM; IC50 ([5]; barium chloride 2×10^-5 M, contact time one minute, 37° C.): > 10000 nM; Agonistic action pD2 [6]: < 4 |
| O=C1CC(O)CN1S(=O)(=O)c1ccc(N2CCCCCC2)cc1 (stereo not shown) [Example 6, 1-[[4-(hexahydro-1H-azepin-1-yl)-phenyl]-sulphonyl]-4-hydroxy-pyrrolidinon] | > 10000 nM | 62 nM |  | 110 nM | 2500 nM | > 100000 nM | ED50 [7, 10]: 12 mg/kg; ED50 [7, 11]: > 50 mg/kg; ED50 [7, 12]: > 50 mg/kg; ED (1 degree C) [7, 13]: 50 mg/kg |
| CCN(CC)c1ccc(S(=O)(=O)N2CC(O)CC2=S)cc1 (stereo not shown) [Example 3, 1-[[4-(diethylamino)-phenyl]-sulphonyl]-4-hydroxy-2-pyrrolidine thione] | > 10000 nM | 370 nM | > 5000 nM | 3000 nM | > 10000 nM | > 100000 nM |  |
| O=S(=O)(c1ccc(N2CCCCC2)cc1)N1CC(O)CC1=S (stereo not shown) [Example 5] | > 10000 nM | 170 nM | > 5000 nM | 1400 nM | > 10000 nM | > 100000 nM | ED50 [7, 10]: 6 mg/kg; ED50 [7, 11]: 50 mg/kg; ED50 [7, 12]: > 50 mg/kg; ED (1 degree C) [7, 13]: 25 mg/kg; selectivity of in vivo anticholinergic action (in words) ([7]; contrary to atropine): selective anticholingeric action at the level of the intestinal musculature |
| C[N+](C)(C)CCOC(N)=O [Carbochol, carbachol, reference compound] |  |  |  |  |  |  | decrease of the rectal temperature ([7]; 1 mg/kg s.c., control mice): about 2.5 °C; induction of diarrhoea, salivation and weeping ([7]; 1 mg/kg s.c., control mice): induced diarrhoea, salivation and weeping in all the control mice |
| COc1ccc(Cc2nccc3cc(OC)c(OC)cc23)cc1OC [Papaverine, papaverine, reference compound] |  |  |  |  |  |  | IC50 ([5]; Cavia porcellus): 45000 nM |
| O=C1CC(O)CN1S(=O)(=O)c1ccc(N2CCCCC2)cc1 (stereo not shown) [Example 4, 4-hydroxy-1-[[4-(1-piperidinyl)-phenyl]-sulphonyl]-2-pyrrolidinone] | > 10000 nM | 560 nM | 10000 nM | 1200 nM | 2500 nM | > 100000 nM |  |
| CN1[C@@H]2CC[C@H]1C[C@@H](OC(=O)C(CO)c1ccccc1)C2 (stereo partly shown) [Atropine, reference compound] |  |  |  |  |  |  | IC50 ([4]; Cavia porcellus): 9.5 nM; ED50 ([7]; read-out: Dose inhibiting diarrhoea in 50% of the animals): 0.04 mg/kg; ED50 ([7]; read-out: Dose inhibiting salivation in 50% of the animals): 0.06 mg/kg; ED50 ([7]; read-out: Dose inhibiting weeping in 50% of the animals): 0.05 mg/kg |
| O=S(=O)(c1ccc(N2CCCCCC2)cc1)N1CC(O)CC1=S (stereo not shown) [Example 7, 1-[[4-(hexahydro-1H-azepin-1-yl)-phenyl]-sulphonyl]-4-hydroxy pyrrolidine thione] | > 10000 nM | 83 nM |  | 510 nM | 3600 nM | > 100000 nM | ED50 [7, 10]: 5 mg/kg; ED50 [7, 11]: 50 mg/kg; ED50 [7, 12]: > 50 mg/kg; ED (1 degree C) [7, 13]: 20 mg/kg |
